Assay results taken from patent US20240409519A1, “HYDROGENATED QUINOXALINES” (OTSUKA PHARMACEUTICAL CO., LTD., priority 2021, published 2024).

What was measured:
[1] = Protein binding rate test (human serum, equilibrium dialysis); type: in vitro ADME; details: test compound 0.001 mmol/L, equilibrium dialysis 37° C. 6 hours
Description: A serum sample was prepared by adding a test compound solution to a human serum (final concentration of the test compound: 0.001 mmol/L). The serum sample and Dulbecco's Phosphate-Buffered Saline (D-PBS(−)) were added to the wells separated by a dialysis membrane to start the reaction. A solution of the internal standard in methanol was prepared and used as a quenching solution.
Specifically, the dialysis membrane (cut-off molecular weight 12000-14000) was pre-conditioned by immersing it in distilled water, followed by 20% ethanol. Then, the membrane was washed with D-PBS(−) and set in an equilibrium dialysis kit. Then, 150 μL of D-PBS(−) was added to one part of each well divided by the dialysis membrane, and 150 μL of serum sample was added to the other part. After sealing all wells and incubation at 37° C. for 6 hours, 30 μL from the serum side and 90 μL from the PBS side of each well were collected and mixed with 90 μL of D-PBS(−) or 30 μL of blank serum and 480 μL of a quenching solution to quench the reaction.
(§1) The mixture was centrifuged (6130 g, 4° C., 10 minutes) and the supernatant was used as a sample for LC-MS/MS.
Peak area ratio ([peak area of test compound]/[peak area of internal standard]) was calculated for the test compound and the internal standard. By comparing the peak area ratio of the PBS side for each test compound with that of the serum side, the protein binding rate (%) of each test compound was calculated from (1-[peak area ratio of PBS side]/[peak area ratio of serum side])×100.

[2] = biological target: T1, norepinephrine (NE) uptake (Rattus norvegicus, UniProt Q63380); experiment: Norepinephrine (NE) uptake inhibitory activity using rat brain synaptosome; type: biochemical; details: rat hippocampus synaptosome, tritium-labeled NE 12 nM; read-out: IC50 (nM), norepinephrine (NE) uptake inhibition
T1 construct: used as crude synaptosomal fraction; from tissue; host or cells: rat hippocampus, crude synaptosomal fraction
Description: Male Wistar rats were decapitated, each brain was removed, and the hippocampus was cut out. […] The homogenate was centrifuged at 1000 g at 4° C. for 10 minutes, and the supernatant was further centrifuged at 20000 g at 4° C. for 20 minutes. The pellet was suspended in an incubation buffer (20 mM Hepes buffer (pH 7.4) containing 10 mM glucose, 145 mM sodium chloride, 4.5 mM potassium chloride, 1.2 mM magnesium chloride and 1.5 mM calcium chloride) and used as crude synaptosomal fraction.
Each well of a 96-well round-bottom plate was used for the uptake reaction in a total volume of 200 μL solution containing purgurin (final concentration 10 μM) and ascorbic acid (final concentration 0.2 mg/mL).
After 10 minutes, the uptake reaction was terminated by suction filtration onto a 96-well glass fiber filter plate. The filters were rinsed with cold physi-ological saline solution, dried thoroughly, and micro scintillation 0 (Perkin-Elmer) was added thereto. Then, the residual radioactivity on the filters was measured.
The uptake value when only solvent was added was set as 100%, the uptake value when unlabeled NE (final concentration 10 μM) was added as 0% (nonspecific uptake value), and the 50% inhibitory concentration was calculated from the concentration of the test compound and its inhibitory activity.

CYP3A4 = biological target: T2, CYP3A4 (Homo sapiens, UniProt P08684); experiment: CYP inhibition test (1): inhibition rate (%) at one concentration, CYP3A4; type: in vitro ADME; details: human liver microsomes, pH 7.4, probe midazolam (0.005 mmol/L); test compound 0.01 mmol/L, human liver microsome 0.1 mg/mL, substrate midazolam, 37° C. 10 minutes; read-out: inhibition rate (%) 3A4
T2 construct: a human liver microsome solution containing three CYP-specific substrates; from tissue; host or cells: human liver microsomes
Description: (§2) A metabolic reaction was initiated by adding and mixing a test compound solution (final concentration 0.01 mmol/L) and a NADH/NADPH solution (final concentration 1 mmol/L) to a human liver microsome solution containing three CYP-specific substrates (final concentration 100 mmol/L potassium phosphate buffer solution (pH 7.4), 5 mmol/L magnesium chloride, 0.1 mg/mL human liver microsome, 0.005 mmol/L diclofenac (for CYP2C9), 0.01 mmol/L bufuralol (for […]), 0.005 mmol/L midazolam (for CYP3A4)). As an internal standard solution, a solution of each of stable isotopes of the metabolites (50 ng/mL [13C6] hydroxy diclofenac, 5 ng/mL [2H9] hydroxy bufuralol, and 5 ng/mL [13C6] hydroxy midazolam (all stable isotopes)) in methanol was prepared and used as a quenching solution.
(§3) Specifically, a metabolic reaction was initiated by adding and mixing 2 μL of a solution of a test compound in acetonitrile (or acetonitrile as a control) to 178 μL of a human liver microsome solution in ice water, followed by preincubation at 37° C. for 1 minute, and then adding 20 μL of a NADH/NADPH solution thereto. After incubation at 37° C. for 10 minutes, 50 μL of the reaction mixture was taken, and then it was added and mixed to 500 μL of a quenching solution to quech the reaction. The mixture was centrifuged (6130 g, 4° C., 10 minutes) and the supernatant was used as a sample for LC-MS/MS.
(§4) Peak area ratio ([peak area of metabolite]/[peak area of corresponding stable isotope]) was calculated for a metabolite and a stable isotope of the metabolite as measurement object. By comparing the peak area ratio of each test compound solution with that of the control, the inhibition rate (%) of each CYP species for each test compound was calculated from (1-[peak area ratio of each test compound solution]/[peak area ratio of control])×100.

[3] = Metabolic stability test (human liver microsome, hepatic intrinsic clearance); type: in vitro ADME; details: human liver microsomes, pH 7.4; human liver microsome 0.2 mg/mL, test compound 0.001 mmol/L, 37° C., 0, 10 and 20 minutes
Description: A metabolic reaction was initiated by adding and mixing a test compound solution (final concentration 0.001 mmol/L) and a NADH/NADPH solution (final concentration 1 mmol/L) to a human liver microsome solution (final concentration 100 mmol/L potassium phosphate buffer solution (pH 7.4), 5 mmol/L magnesium chloride, 0.2 mg/ml, human liver microsome). A solution of the internal standard in methanol was prepared and used as a quenching solution.
Specifically, a metabolic reaction was initiated by adding and mixing 2.5 μL of a solution of a test compound in acetonitrile to 222.5 μL of a human liver microsome solution in ice water, followed by preincubation at 37° C. for 1 minute, and then adding 25 μL of a NADH/NADPH solution thereto.
as §1
Peak area ratio ([peak area of test compound]/[peak area of internal standard]) was calculated for the test compound and the internal standard.
The residual ratio of the test compound was calculated from ([Ratio of peak areas at each reaction time]/[Ratio of peak areas at 0 minute reaction time]).

CYP2D6 = biological target: T3, CYP2D6 (Homo sapiens, UniProt P10635); experiment: CYP inhibition test (1): inhibition rate (%) at one concentration, CYP2D6; type: in vitro ADME; details: human liver microsomes, pH 7.4, probe bufuralol (0.01 mmol/L); test compound 0.01 mmol/L, human liver microsome 0.1 mg/mL, substrate bufuralol, 37° C. 10 minutes; read-out: inhibition rate (%) 2D6
T3 construct: a human liver microsome solution containing three CYP-specific substrates; from tissue; host or cells: human liver microsomes
Description: as §2, §3, §4

T3 sequence (P10635 whole entry): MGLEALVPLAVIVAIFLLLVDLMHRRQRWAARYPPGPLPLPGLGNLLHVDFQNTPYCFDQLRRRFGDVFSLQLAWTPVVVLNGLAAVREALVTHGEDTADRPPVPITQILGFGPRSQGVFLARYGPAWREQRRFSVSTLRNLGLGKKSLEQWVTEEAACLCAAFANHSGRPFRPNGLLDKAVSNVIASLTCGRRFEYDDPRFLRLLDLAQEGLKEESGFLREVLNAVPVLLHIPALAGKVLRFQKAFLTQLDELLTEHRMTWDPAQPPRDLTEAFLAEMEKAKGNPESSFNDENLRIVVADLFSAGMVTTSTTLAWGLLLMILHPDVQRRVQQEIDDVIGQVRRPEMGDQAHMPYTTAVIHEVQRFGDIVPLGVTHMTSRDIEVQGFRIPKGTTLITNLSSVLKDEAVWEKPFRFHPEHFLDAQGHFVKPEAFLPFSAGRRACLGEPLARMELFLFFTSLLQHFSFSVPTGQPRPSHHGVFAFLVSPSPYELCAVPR
T2 sequence (P08684 whole entry): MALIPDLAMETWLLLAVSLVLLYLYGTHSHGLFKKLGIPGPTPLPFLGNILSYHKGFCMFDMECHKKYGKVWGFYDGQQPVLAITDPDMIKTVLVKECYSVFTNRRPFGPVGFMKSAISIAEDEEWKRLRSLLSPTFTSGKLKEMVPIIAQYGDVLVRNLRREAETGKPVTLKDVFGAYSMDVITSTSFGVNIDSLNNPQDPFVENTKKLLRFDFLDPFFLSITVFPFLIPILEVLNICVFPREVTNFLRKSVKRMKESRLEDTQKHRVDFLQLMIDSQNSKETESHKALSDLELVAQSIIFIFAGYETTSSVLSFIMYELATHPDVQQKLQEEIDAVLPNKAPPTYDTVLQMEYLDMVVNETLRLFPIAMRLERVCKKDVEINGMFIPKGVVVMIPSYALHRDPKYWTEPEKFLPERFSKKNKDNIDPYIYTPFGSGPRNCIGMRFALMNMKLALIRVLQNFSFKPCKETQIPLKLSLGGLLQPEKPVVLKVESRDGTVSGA
T1 sequence (Q63380 1-617): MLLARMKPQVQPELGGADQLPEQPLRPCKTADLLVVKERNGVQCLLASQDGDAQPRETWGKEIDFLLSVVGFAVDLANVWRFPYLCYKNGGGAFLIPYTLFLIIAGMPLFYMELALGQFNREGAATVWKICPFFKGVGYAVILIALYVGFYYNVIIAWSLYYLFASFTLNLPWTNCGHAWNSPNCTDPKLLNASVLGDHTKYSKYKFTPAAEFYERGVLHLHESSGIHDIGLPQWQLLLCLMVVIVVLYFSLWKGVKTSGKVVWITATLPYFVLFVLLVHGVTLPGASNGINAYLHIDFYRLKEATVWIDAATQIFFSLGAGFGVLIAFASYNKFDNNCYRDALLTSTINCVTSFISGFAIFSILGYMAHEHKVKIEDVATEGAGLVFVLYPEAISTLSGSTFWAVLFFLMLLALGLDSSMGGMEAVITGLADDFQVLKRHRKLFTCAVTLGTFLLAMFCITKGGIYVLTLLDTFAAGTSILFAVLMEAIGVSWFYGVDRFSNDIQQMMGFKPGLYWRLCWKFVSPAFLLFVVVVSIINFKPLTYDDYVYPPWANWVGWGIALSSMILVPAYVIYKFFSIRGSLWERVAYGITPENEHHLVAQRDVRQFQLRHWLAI

fraction unbound at 6 h, 0.001 mmol/L [1] | IC50 [2] [nM] | inhibition at 10 min, 0.01 mmol/L (CYP3A4) [%] | microsomal CLint at 0.001 mmol/L [3] [µL/min/mg] | inhibition at 10 min, 0.01 mmol/L (CYP2D6) [%] | Structure (SMILES)
0.73 | 8.3 | 0.1 | < 50 | 23 | CC1(C)CN(c2ccc(OCCO)c(F)c2)[C@H]2CCCC[C@H]2N1 [Example 52]
0.294 | 4.9 | 8.6 | 58 | 14.9 | Cc1c(N2CC(C)(C)N[C@@H]3CCCC[C@@H]32)ccc(OC(F)(F)CO)c1F [Example 57]
0.358 | 6.4 | 13.1 | < 50 | 16.1 | Cc1cc(N2CC(C)(C)N[C@@H]3CCCC[C@@H]32)cc(F)c1OC(F)(F)CO [Example 58]
0.337 | 6.1 | -2.7 | < 50 | 16.1 | CC1(C)CN(c2ccc(OC(F)(F)CO)cc2F)[C@H]2CCCC[C@H]2N1 [Example 61, 2-(4-((4aR,8aS)-3,3-dimethyloctahydroquinoxalin-1(2H)-yl)-3-fluorophenoxy)-2,2-difluoroethan-1-ol 1/2fumarate]
0.404 | 6.9 | -1.6 | < 50 | 17.8 | CC1(C)CN(c2cc(Br)c(OCCO)cc2F)[C@H]2CCCC[C@H]2N1 [Example 62]
0.261 | 3.6 | 6.1 | 84 | 19.2 | CC1(C)CN(c2ccc(OCCO)c(Br)c2F)[C@H]2CCCC[C@H]2N1 [Example 63]
0.499 | 5.4 | 3.9 | < 50 | 21.6 | CC1(C)CN(c2ccc(OCCO)cc2Cl)[C@H]2CCCC[C@H]2N1 [Example 64, 2-(3-chloro-4-((4aR,8aS)-3,3-dimethyloctahydroquinoxalin-1(2H)-yl)phenoxy)ethan-1-ol 1/2fumarate]
0.211 | 3.4 | 19.7 | < 50 | 45.6 | Cc1c(OC(F)(F)CO)ccc(N2CC(C)(C)N[C@H]3CCCC[C@H]32)c1F [Example 69, 2-(4-((4aS,8aR)-3,3-dimethyloctahydroquinoxalin-1(2H)-yl)-3-fluoro-2-methylphenoxy)-2,2-difluoroethan-1-ol 1/2fumarate]
0.195 | 1 | 17.6 | < 50 | 28.4 | Cc1c(OC(F)(F)CO)ccc(N2CC(C)(C)N[C@@H]3CCCC[C@@H]32)c1F [Example 70]
0.285 | 6.3 | -3.4 | < 50 | 28.8 | CC1(C)CN(c2cc(F)c(OC(F)(F)CO)cc2F)[C@H]2CCCC[C@H]2N1 [Example 71]
0.766 | 7.9 | -2.4 | < 50 | 17.9 | CC1(C)CN(c2cc(F)c(OCCO)cc2F)[C@H]2CCCC[C@H]2N1 [Example 72]
0.267 | 2.4 | 5.9 | < 50 | 21.5 | CC1(C)CN(c2ccc(OC(F)(F)CO)c(F)c2F)[C@H]2CCCC[C@H]2N1 [Example 73]
0.277 | 9.7 | 9.9 | < 50 | 19.3 | CC1(C)CN(c2cc(Cl)c(OC(F)(F)CO)cc2F)[C@H]2CCCC[C@@H]2N1 [Example 75]
0.308 | 8.8 | 12.4 | < 50 | 21.9 | CC1(C)CN(c2cc(Cl)c(OC(F)(F)CO)cc2F)[C@@H]2CCCC[C@H]2N1 [Example 76]
0.411 | 7.1 | -1.9 | < 50 | 18.1 | CC1(C)CN(c2cc(F)c(OC(F)(F)CO)cc2F)[C@H]2CCCC[C@@H]2N1 [Example 77]
0.289 | 5.8 | 17.1 | < 50 | 38.8 | Cc1c(OC(F)(F)CO)ccc(N2CC(C)(C)N[C@H]3CCCC[C@@H]32)c1F [Example 79]
0.21 | 12.4 | 17.6 | 57 | 20.9 | CC1(C)CN(c2ccc(OC(F)(F)CO)c(Cl)c2F)[C@@H]2CCCC[C@H]2N1 [Example 80]
